Where two headings read alike, the source gives them in different places.
Tests used:
Assay type in all cases: cell-based
CaAto1 (Ato1-GFP) [1] = target: T1, CaAto1 (Ato1-GFP) (Candida albicans, UniProt A0A1D8PHP8); test: competition of […]acetate uptake in cells; settings: read-out: % inhibition at 10 mM
T1 construct: gene FRP3; full length with C-terminal GFP at both native loci, in C. albicans cells (ATO1-GFP/ATO1-GFP)

CaAto1 (Ato1-GFP) [2] = target: T1, CaAto1 (Ato1-GFP); test: […]lactate uptake in cells, against ato1 deletion strain; settings: pH 6.0, 30 °C, 1-24 mM; H+ symport; labelled compound
CaAto1 (Ato1-GFP) [3] = target: T1, CaAto1 (Ato1-GFP); test: competition of […]acetate uptake in cells; settings: 0.1 mM [14C]acetate, 10 mM competitor, pH 6.0, 30 °C, collective statement for most carboxylates, estimated from one concentration

T1 sequence (A0A1D8PHP8 entry or part of it): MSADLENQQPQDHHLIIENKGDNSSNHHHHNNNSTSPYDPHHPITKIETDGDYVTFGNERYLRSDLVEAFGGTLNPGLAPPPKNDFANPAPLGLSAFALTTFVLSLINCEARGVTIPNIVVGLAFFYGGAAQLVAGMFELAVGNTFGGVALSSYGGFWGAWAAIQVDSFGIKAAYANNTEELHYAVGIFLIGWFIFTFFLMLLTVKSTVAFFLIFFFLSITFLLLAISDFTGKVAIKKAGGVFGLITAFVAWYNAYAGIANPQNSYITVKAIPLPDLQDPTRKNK

In the case of `CCCC(=O)O` [butyrate], the inhibition at 10000 µM (CaAto1 (Ato1-GFP) [1]) is reported as about 50%.
`C[C@H](O)C(=O)O` [[14C]lactate] was tested, and the “[14C]lactate uptake in cells, against ato1 deletion strain” value (CaAto1 (Ato1-GFP) [2]) was “practically no lactate uptake was recorded in ato1Δ/Δ or ato1-10Δ/Δ strains”.
Work on `O=C(O)CC(O)(CC(=O)O)C(=O)O` [citrate] yielded a Ki (CaAto1 (Ato1-GFP) [3]) of over 10 mM.
In the case of `C[C@H](O)C(=O)O` [lactate], the Ki (CaAto1 (Ato1-GFP) [3]; read-out: Ki) is reported as over 10 mM.
Molecule `CC(=O)C(=O)O` [pyruvate] has a Ki (CaAto1 (Ato1-GFP) [3]; read-out: Ki) of over 10 mM.
`O=CO` [formate] was tested, and the Ki (CaAto1 (Ato1-GFP) [3]) was over 10 mM.
`O=C(O)CCC(=O)O` [succinate] gave a Ki (CaAto1 (Ato1-GFP) [3]) of over 10 mM.
`O=C(O)C[C@H](O)C(=O)O` [malate] was tested, and the Ki (CaAto1 (Ato1-GFP) [3]) was over 10 mM.

Reference: PMC13316224, “Expansion, functional diversification, and gene fusion events in the Ato protein family” (iScience, 2026)
